{"source": "patent US20210220358A1", "about": "“1,3-THIAZOL-2-YL SUBSTITUTED BENZAMIDES FOR THE TREATMENT OF DISEASES ASSOCIATED WITH NERVE FIBER SENSITIZATION” (Bayer Aktiengesellschaft, priority 2018, published 2021)", "key": {"healthy young males [1]": {"system": "healthy young males", "test": "Taste related adverse events recorded during clinical studies", "format": "in vivo, humans", "text": "Taste related adverse events describe adverse events that lead to a change in taste perception, e.g. dysgeusia (distortion of taste), hypogeusia (decrease in taste sensitivity) and ageusia (complete lack of taste).\nAdverse events (AE) in the context of a clinical study are defined as any untoward medical occurrence (i.e. any unfavorable and unintended sign including abnormal laboratory findings, symptom or disease) in a patient or clinical investigation subject after providing written informed consent for participation in the study. Therefore, an AE may or may not be temporally or causally associated with the use of a medicinal (investigational) product.\n3-(5-Methyl-1,3-thiazol-2-yl)-5-[(3R)-tetrahydrofuran-3-yloxy]-N-{(1R)-1-[2-(trifluoromethyl)pyrimidin-5-yl]ethyl}benzamide has been administered as single oral dose with increasing amounts starting from 10 mg per subject to 800 mg per subject in comparison with placebo to healthy young males.\n(§1) In the first part of the above-described protocol, 3-(5-Methyl-1,3-thiazol-2-yl)-5-[(3R)-tetrahydrofuran-3-yloxy]-N-{(1R)-1-[2-(trifluoromethyl)pyrimidin-5-yl]ethyl}-benzamide has been administered as multiple oral dose with increasing amounts starting from 10 mg per subject twice daily to 750 mg per subject twice daily in comparison with placebo to healthy young males. […] The treatment duration was 14 days.\n(§2) The treatment duration was 14 days."}, "healthy young males [2]": {"system": "healthy young males", "test": "Taste assessment test (Taste Strips) during clinical studies", "format": "in vivo, humans", "text": "The Taste Strips (Burghart Messtechnik GmbH) are a validated test method for ascertaining tasting performance (ISO certified). The following concentrations have been applied on the taste strips: sweet: 0.4, 0.2, 0.1, 0.05 g/ml sucrose; sour: 0.3, 0.165, 0.09, 0.05 g/ml citric acid; salty: 0.25, 0.1, 0.04, 0.016 g/ml sodium chloride; bitter: 0.006, 0.0024, 0.0009, 0.0004 g/ml quinine hydrochloride. The Strips were used to check the tasting performance of the whole mouth by placing a Taste Strip on the tongue and closing the mouth (the subject can move the tongue). […] Afterwards and between the 4 taste strips the mouth was rinsed with a sip of tap water according to individual needs. […] The taste strips were presented in a pseudo-randomized order (increasing concentration for each quality) and placed on the tongue. The subject's task was to choose one of five possible answers on a form (sweet, sour, salty, bitter, no taste). Before and after each testing, the mouth was rinsed with a sip of tap water according to individual needs. The lowest concentrations of each taste quality should have been identified by half of the healthy subjects only; the highest concentration should have been identified by approximately 100% of the subjects.\nThe taste strips were tested under blinded conditions to the subject. The number of correctly identified taste strips per subjects was counted with the maximum number achievable being 18 points (4 concentration/taste quality plus to blank paper strips)."}, "healthy young males [3]": {"system": "healthy young males", "test": "Adverse events (side effect profile) in multiple dose study", "format": "in vivo, humans", "description": "(§3) In a first part of a two-part, double-blind, placebo-controlled, randomized, parallel-group study safety and tolerability of ascending repeated oral doses of the drug to be tested are assessed in 47 healthy male volunteers, followed by a second two-way crossover administration of four different doses in 40 patients with refractory chronic cough to assess safety, tolerability and efficacy for proof of concept.\nas §1\nas §3, with “study, the” for “study”, “36” for “47”, “second part with a” for “second”, “in” for “in 40”\nas §2"}, "human vagus nerve": {"system": "human vagus nerve", "test": "Vagal depolarization - inhibition of human vagus nerve by P2X3 inhibitors (grease-gap recording)", "details": "TRPV4 agonist GSK 1016790A 300 nM; FIG. 1", "description": "The aim of the study is to test the effects of P2X3 antagonists on the deoplarisation of human vagus nerve as an ex vivo measure of blocking Chronic Cough. Human vagal tissue was dissected from 4 human lungs (obtained from healthy tissue donors).\nThe tissue was assayed using an O2/CO2 gassed, grease-gap recording system as described in Birrell et al, Am J Respir Crit Care Med. 2009, 180:1042-1047; Bonvini et al, J Allergy Clin Immunol. 2016, 138 (1), 249-261, Bonvini et al, Naunyn Schmiedebergs Arch Pharmacol. 2015, 388: 401-420. Briefly, after the tissue had stabilised it was exposed to two 2 minute challenges with a sub-maximal concentration of agonists (TRPV4 agonist GSK 1016790A, 300 nM). Sub-maximal concentration means a concentration where no full efficacy is observed, i.e. stimulation with the agonist within the dynamic range. Typical values are 80% of the maximal efficacy that can be achieved. The tissue was then exposed to vehicle (0.1 Vol % DMSO solution in Krebs buffer) or test compound for 10 minutes and then the tissue was re-challenged with agonist in the presence of the test compound. […] Only one experiment was performed on each piece of tissue and n=4 means tissue from 4 different lungs[…]. The data was electrophysiologically recorded as actual depolarisation levels and presented as mean percentage inhibition. Results can be found in FIG. 1."}, "treated subjects": {"system": "treated subjects", "details": "Clinical Phase II trials (Abdulqawi et al 2015; Strand et al 2015); cited from earlier work"}, "[4]": {"system": "human P2X3 and human P2X2/3 receptors", "details": "cited from earlier work"}, "[5]": {"details": "multiple oral dose 10 mg to 750 mg twice daily, 14 days"}}}
{"smiles": "Cc1cnc(-c2cc(O[C@@H]3CCOC3)cc(C(=O)N[C@H](C)c3cnc(C(F)(F)F)nc3)c2)s1", "note": "[3-(5-methyl-1,3-thiazol-2-yl)-5-[(3R)-tetrahydrofuran-3-yloxy]-N-{(1R)-1-[2-(trifluoromethyl)pyrimidin-5-yl]ethyl}benzamide]", "values": [{"measurement": "taste AE duration", "setting": "healthy young males [1]; 1 subject treated with 200 mg twice daily, on day 11", "result": 2, "unit": "h"}, {"measurement": "influence on perception of taste based on spontaneously reported adverse events", "setting": "healthy young males [1]; [5]", "result": "in few subjects only"}, {"measurement": "course of change in taste perception", "setting": "healthy young males [1]; one subject treated with 200 mg twice daily", "result": "repeatedly occurring during continued treatment starting on treatment day 4 and lasting until 5 days after end of treatment"}, {"measurement": "taste AE duration", "setting": "healthy young males [1]; one subject treated with 750 mg twice daily, on day 3", "result": 0.5, "unit": "h"}, {"measurement": "taste related adverse events", "setting": "healthy young males [1]; single oral dose, 10 mg to 800 mg per subject, versus placebo", "result": "No taste related adverse were observed"}, {"measurement": "effects on taste perception based on the taste assessment test", "setting": "healthy young males [2]; [5]", "result": "no relevant effects on taste perception (No relevant effects on taste perception in the context of the present invention mean that no effect on taste perception has been observed in at least 80% of subjects under treatment according to the above-described protocol over a period of 14 days)"}, {"measurement": "changes in taste scores under treatment", "setting": "healthy young males [2]; single oral dose 10 mg to 800 mg", "result": "no significant or relevant changes in taste scores were observed"}, {"measurement": "effects on taste perception based on the taste assessment test", "setting": "healthy young males [2]; single oral dose 10 mg to 800 mg, tests at baseline, 3 hrs and 6 days after drug administration", "result": "no relevant effects on taste perception were observed"}, {"measurement": "nausea", "setting": "healthy young males [3]; multiple dose study, 50 mg dose", "result": "one case of nausea"}, {"measurement": "adverse events physical dependency, increased heart rate, xerostomia, constipation, drowsiness and sedation", "setting": "healthy young males [3]; [5]", "result": "no such adverse events"}]}
{"smiles": "COc1cc(C(C)C)c(Oc2cnc(N)nc2N)cc1S(N)(=O)=O", "note": "[AF-219, 5-(2,4-diamino-pyrimidin-5-yloxy)-4-isopropyl-2-methoxy-benzenesulfonamide]", "values": [{"measurement": "effect size / efficacy in blocking vagus nerve depolarization, compared between compounds", "setting": "human vagus nerve", "result": "the effect size observed was the same"}, {"measurement": "taste disturbances in treated subjects", "setting": "treated subjects", "result": "leads to taste disturbances in treated subjects"}, {"measurement": "selectivity P2X3 homomer versus P2X2/3", "setting": "[4]", "result": "P2X3 and P2X2/3 non-selective"}]}
